Experimental data reported in patent US20260125362A1, “TARGETED PROTEIN DEGRADATION OF PARP14 FOR USE IN THERAPY” (AbbVie Biotechnology Ltd, priority 2019, published 2026).

How the values were obtained:
[1] = target: T1, catalytic domain of human PARP14 (Homo sapiens, UniProt Q460N5); test: Enzymatic assay for inhibition of PARP14 (DELFIA, auto-modification with biotin-NAD); type: biochemical; settings: compounds corresponding to group Q
T1 construct: made in house; host or cells: Escherichia coli
T1 sequence (Q460N5 1611-1801): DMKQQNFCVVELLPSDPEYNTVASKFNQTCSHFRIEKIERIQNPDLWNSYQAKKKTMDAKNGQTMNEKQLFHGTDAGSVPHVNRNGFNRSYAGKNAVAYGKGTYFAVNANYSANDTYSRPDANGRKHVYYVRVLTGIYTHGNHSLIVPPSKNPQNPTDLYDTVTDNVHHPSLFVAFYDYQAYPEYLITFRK
Method: The catalytic domain of human PARP14 (residues 1611 to 1801, GenBank Accession No. NM_017554) was overexpressed in Escherichia coli cells. An N-teininal His-TEV fusion tag was used to purify the protein from cell lysates. The His-TEV tag was left on the protein for use in the enzymatic assay.
Enzymatic inhibition of PARP14 was measured using a dissociation-enhanced lanthanide fluorescence immunoassay (DELFIA) monitoring the auto-modification of PARP14 by biotinylated nicotinamide adenine dinucleotide (biotin-NAD), 1 μL of a dose response curve of each test compound was spotted in 384-well nickel-coated white microplates (Therno) using a Mosquito (TTP Labtech). Reactions were performed in a 50 p L volume by adding 40 μL of PARP14 in assay buffer (20 mM HEPES pH=8, 100 mM NaCl, 0.1% bovine serum albumin. 2 mM DTT and 0.002% Tween20), incubating with test compound at 25° C. for 30 min, then adding 10 μL of biotin-NA D (Biolog). The final concentrations of PARP14 and biotin-NAD are 50 nM and 3 μM, respectively. Reactions proceeded at 25° C. for 3 h, then were quenched with 5 μL of 10 mM unmodified nicotinamide adenine dinucleotide (Sigma-Aldrich). The quenched reactions were washed 3 times with 100 μL of TBST wash buffer (50 mM Tris-HCl, 150 mnM NaCl and 0.1% Tween20). Next, to the washed and dried plate was added 25 μL of DELFIA Europium-NI streptavidin (Perkin Elmer) diluted in DELFIA assay buffer (Perkin Elmer). After a 30 min incubation at 25° C., the plate was washed 5 times with TBST wash buffer. Finally, 25 μL of DELFIA enhancement solution was added. After a 5 min incubation the plate was read on an Envision platereader equipped with a LANCE/DELFIA top mirror (Perkin Elmer) using excitation of 340 nm and emission of 615 nm to measure the amount of Europium present in each well, informing on the amount of biotin-NAD that was transferred in the automodification reaction. Control wells containing a negative control of 2% DMSO vehicle or a positive control of 100 μM rucaparib were used to calculate the % inhibition as described below:
where ex615cmpd is the emission from the compound treated well, ex615min, is the emission from the rucaparib treated positive control well and ex615max is the emission from the DMSO treated negative control well.
The % inhibition values were plotted as a function of compound concentration and the following 4-parameter fit was applied to derive the IC50 values:
where top and bottom are normally allowed to float, but may be fixed at 100 or 0 respectively in a 3-parameter fit. The Hill Coefficient is normally allowed to float but may also be fixed at 1 in a 3-parameter fit. Y is the % inhibition and X is the compound concentration.

[2] = target: T2, PARP14 (Homo sapiens, UniProt Q460N5); test: PARP14 degradation assay (Western blot) in KYSE270 cells; type: cell-based; settings: 24 h
T2 construct: endogenous in cells; host or cells: KYSE270
T2 sequence (Q460N5 whole entry): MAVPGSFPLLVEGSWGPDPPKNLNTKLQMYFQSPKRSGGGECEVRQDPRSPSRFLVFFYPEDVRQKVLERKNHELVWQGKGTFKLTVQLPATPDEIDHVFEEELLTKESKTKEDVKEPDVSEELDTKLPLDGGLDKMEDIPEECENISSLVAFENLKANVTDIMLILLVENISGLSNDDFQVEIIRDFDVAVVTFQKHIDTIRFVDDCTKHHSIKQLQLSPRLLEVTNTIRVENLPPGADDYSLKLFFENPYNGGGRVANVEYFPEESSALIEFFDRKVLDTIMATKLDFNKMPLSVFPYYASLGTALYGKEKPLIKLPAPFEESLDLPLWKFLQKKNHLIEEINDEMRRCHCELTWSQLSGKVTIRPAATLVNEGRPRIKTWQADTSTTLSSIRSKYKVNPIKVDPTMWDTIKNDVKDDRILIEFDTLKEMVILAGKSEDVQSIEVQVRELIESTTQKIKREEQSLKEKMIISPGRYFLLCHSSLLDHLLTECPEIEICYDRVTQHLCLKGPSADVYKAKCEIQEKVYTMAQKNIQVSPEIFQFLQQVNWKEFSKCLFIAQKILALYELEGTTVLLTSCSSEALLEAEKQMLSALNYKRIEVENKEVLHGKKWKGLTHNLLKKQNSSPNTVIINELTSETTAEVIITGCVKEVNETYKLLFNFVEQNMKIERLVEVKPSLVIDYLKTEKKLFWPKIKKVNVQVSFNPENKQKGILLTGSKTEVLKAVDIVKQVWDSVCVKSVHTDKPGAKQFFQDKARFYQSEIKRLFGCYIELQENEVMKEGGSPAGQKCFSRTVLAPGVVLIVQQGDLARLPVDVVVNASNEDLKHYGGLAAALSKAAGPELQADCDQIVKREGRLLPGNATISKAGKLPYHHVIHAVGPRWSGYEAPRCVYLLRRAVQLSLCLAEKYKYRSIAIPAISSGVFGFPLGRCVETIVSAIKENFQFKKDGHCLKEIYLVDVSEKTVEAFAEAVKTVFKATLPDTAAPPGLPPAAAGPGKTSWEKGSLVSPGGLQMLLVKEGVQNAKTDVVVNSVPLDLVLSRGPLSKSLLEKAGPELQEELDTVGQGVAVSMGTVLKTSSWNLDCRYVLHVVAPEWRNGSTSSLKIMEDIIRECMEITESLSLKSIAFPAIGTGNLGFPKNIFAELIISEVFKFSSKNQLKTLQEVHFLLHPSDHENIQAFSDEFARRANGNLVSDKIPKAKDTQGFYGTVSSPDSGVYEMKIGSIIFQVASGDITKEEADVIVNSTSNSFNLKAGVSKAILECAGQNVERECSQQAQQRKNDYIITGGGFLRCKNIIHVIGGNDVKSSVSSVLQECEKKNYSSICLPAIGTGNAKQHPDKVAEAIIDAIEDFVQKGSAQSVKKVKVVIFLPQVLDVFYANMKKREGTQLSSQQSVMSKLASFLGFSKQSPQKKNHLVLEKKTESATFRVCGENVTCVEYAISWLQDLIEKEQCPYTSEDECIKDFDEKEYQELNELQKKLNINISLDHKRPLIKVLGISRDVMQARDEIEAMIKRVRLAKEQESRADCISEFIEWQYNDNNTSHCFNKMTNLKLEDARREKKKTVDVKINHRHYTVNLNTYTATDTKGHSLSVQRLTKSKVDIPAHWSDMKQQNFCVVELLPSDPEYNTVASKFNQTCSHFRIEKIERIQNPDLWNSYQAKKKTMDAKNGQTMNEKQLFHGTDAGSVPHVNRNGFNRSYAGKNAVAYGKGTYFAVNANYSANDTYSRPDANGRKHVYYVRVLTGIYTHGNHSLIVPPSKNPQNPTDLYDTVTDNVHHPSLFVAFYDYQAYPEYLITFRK
Method: KYSE270 cells were seeded at a density of […] in 6-well plates and incubated overnight. Once attached, cells were treated with the compounds of Examples 1-4 at increasing concentrations (0.001 μM, 0.01 μM, 0.1 μM, 1 μM, and 10 μM; 0.003 μM, 0.03 μM, 0.3 μM, and 3 μM were also evaluated for the compound of Example 1), or with DMSO for 24 h. Media was gently aspirated and cells washed 3 times with 2 mL of ice cold PBS while on ice. The PBS was completely aspirated and 75 μl freshly prepared lysis buffer (Thermo Fisher 78501) was added to cells before scraping into the buffer. Lysates were collected in microcentrifuge tubes and incubated on ice for 15 minutes. Lysates were centrifuged at 10,000 rpm for 15 min at 4° C. and supernatants collected into fresh microcentrifuge tubes. Protein concentration was measured using a reducing agent compatible with the Pierce BCA Protein Assay Kit (Thermo Fisher 23250). Samples were prepared in loading buffer (LI-COR 928-40004) containing 5% β-mercaptoethanol, and incubated at 95° C. for 5 min. Protein lysates were resolved on 4-12% Tris-Acetate gels in MOPS running buffer with 60 μg of protein per well. Western blot transfers were done with PVDF membranes (LI-COR Immobilon) with 20 volts for 14 minutes. Primary antibodies (PARP14: in house generated mouse antibody (15A6 LotIC), β-actin: D6A8 (8457)) were incubated at 1:1,000 dilution using the odyssey blocking buffer (LI-COR 927-50000) for 2 h at room temperature and detected with secondary antibody (LI-COR 926-68072, 926-32211). Mouse antibody 15A6 Lot1C was generated by immunizing with recombinant human PARP14 catalytic domain protein. After hybridoma fusion, the parental clones were screened for reactivity against PARP14 catalytic domain, which were then subcloned to generate monoclones including 15A6-1. Monoclonal supernatants were tested by Western blotting against THP-1 and THP-1 PARP14 KO cells to confirm reactivity. The PARP14 antibody was produced by culturing the 15A6-1 hybridoma monoclone in 1L of serum free media+2% low IgG FBS. […]

[3] = system: IL-10 production; test: Reduction of IL-10 production in IL-4 stimulated M2-like macrophages (ELISA); type: cell-based; settings: IL-4 stimulated M2-like macrophages from human monocytes; 1, 0.1 or 0.01 μM
Method: Monocytes were isolated from peripheral human blood and cultured in the presence of M-CSF and the compound of Example 1 (at 1, 0.1 or 0.01 μM) for 72 h. M-CSF differentiates monocytes into M-0 macrophages. Subsequently medium was replaced with fresh medium containing IL-4 and the compound of Example 1 (at 1, 0.1 or 0.01 μM), and cells were incubated for another 48 h. Isolation of primary human monocytes from whole blood: Primary monocytes were isolated from whole blood (iSPECIMEN; 500 mL) collected from healthy donors. Blood was diluted at a 1:1 ratio with EasySep buffer (STEMCELL Technologies 20144) and layered onto lymphoprep (STEMCELL Technologies 07811) in SepMate tubes (STEMCELL Technologies 85450) for PBMC isolation according to the manufacturer's instructions. […] Cells were treated with the compound of Example 1 or DMSO on day 6 after seeding at 1 μmol/L, 0.1 μmol/L, and 0.01 μmol/L. IL-10 determination: Levels of IL-10 in the supernatants of human primary M2 macrophages were determined with the IL-10 ELISA kit (STEMCELL Technologies 02013) according to the manufacturer's instructions. Briefly, supernatants were collected at the indicated time point and depleted of any floating cells before being stored at −80° C. until ready to use. IL-10 concentrations were determined from the kit's IL-10 standard curve and normalized to total cell protein.

Compound	IC50 [1]	hook effect at higher concentrations (PARP14 degradation) [2]	IL-10 production (IL-10 levels in tissue culture supernatant, ELISA) [3]
O=c1[nH]c(CS[C@H]2CC[C@@H](O)CC2)nc2cc(OCC3CCOCC3)cc(F)c12	< 1000 nM	–	–
O=c1[nH]c(CS[C@H]2CC[C@H](O)CC2)nc2cc(OCC3CCOCC3)cc(F)c12	< 1000 nM	–	–
O=c1[nH]c(CSC2CCC(O)CC2)nc2cc(OCC3CCCOC3)cc(F)c12 (centres unmarked)	< 1000 nM	–	–
O=c1[nH]c(CSC2CCNCC2)nc2cc(NC3CCCC3)cc(F)c12	< 1000 nM	–	–

Second part, led by results:

IC50 [1]	hook effect at higher concentrations (PARP14 degradation) [2]	Compound	IL-10 production (IL-10 levels in tissue culture supernatant, ELISA) [3]
–	amelioration of efficacy	O=C1CCC(N2C(=O)c3cccc(NCCCCCCCC(=O)N[C@H]4CC[C@H](SCc5nc6cc(OCC7CCOCC7)cc(F)c6c(=O)[nH]5)CC4)c3C2=O)C(=O)N1 (some centres unmarked) [Example 3, 8-((2-(2,6-dioxopiperidin-3-yl)-1,3-dioxoisoindolin-4-yl)amino)-N-((1r,4r)-4-(((5-fluoro-4-oxo-7-((tetrahydro-2H-pyran-4-yl)methoxy)-3,4-dihydroquinazolin-2-yl)methyl)thio)cyclohexyl)octanamide]	–
–	amelioration of efficacy	O=C(CN1CCC(SCc2nc3cc(NC4CCCC4)cc(F)c3c(=O)[nH]2)CC1)NCCCCCCNc1cccc2c1C(=O)N(C1CCC(=O)NC1=O)C2=O.O=C(O)C(F)(F)F (centres unmarked) [Example 1, 2-(4-(((7-(Cyclopentylamino)-5-fluoro-4-oxo-3,4-dihydroquinazolin-2-yl)methyl)thio)piperidin-1-yl)-N-(6-((2-(2,6-dioxopiperidin-3-yl)-1,3-dioxoisoindolin-4-yl)amino)hexyl)acetamide trifluoroacetate]	decreased IL-10 production
–	amelioration of efficacy	O=C1CCC(N2C(=O)c3cccc(NCCC(=O)N[C@H]4CC[C@H](SCc5nc6cc(OCC7CCOCC7)cc(F)c6c(=O)[nH]5)CC4)c3C2=O)C(=O)N1 (some centres unmarked) [Example 4, 3-((2-(2,6-dioxopiperidin-3-yl)-1,3-dioxoisoindolin-4-yl)amino)-N-((1r,4r)-4-(((5-fluoro-4-oxo-7-((tetrahydro-2H-pyran-4-yl)methoxy)-3,4-dihydroquinazolin-2-yl)methyl)thio)cyclohexyl)propanamide]	–
